Patent publication US20230242616A1, “CHEMOKINE-SELECTIVE CXCR4 ECTODOMAIN-DERIVED (POLY)PEPTIDE” (Ludwig-Maximilians-Universität München, priority 2020, published 2023)
Values joined by “and” are separate entries in the source; they are usually repeats but may differ in a detail not shown here. Identical values can stand only once.

What was measured:
[1] = tested on: human monocytes; assay: 3D migration of monocytes elicited by MIF (time-lapse microscopy); assay type: cell-based
From the text: (§1) Isolation of human peripheral blood-derived monocytes. Human peripheral blood-derived monocytes were isolated as described^14. Briefly, blood was collected from healthy donors or buffy coat obtained from the blood bank of Munich University Hospital, mixed 1:1 with PBS, and PBMCs isolated by Ficoll-Paque Plus gradient (GE Healthcare). Monocytes were purified by negative depletion using the Monocyte Isolation Kit II (Miltenyi). Monocyte purity was verified by flow cytometry using an anti-CD14 antibody (Miltenyl) and was 95-98%. […] The isolation of PBMCs from donor blood was approved by the local ethics committee of LMU Munich. 3D migration of human peripheral blood-derived monocytes by time-lapse microscopy. The 3D-migration behavior of human monocytes was assessed by time-lapse microscopy and individual cell tracking using the 3D chemotaxis μ-Slide system from Ibidi GmbH (Munich, Germany), adapting the established Ibidi dendritic cell protocol for human monocytes. […] Cell motility was monitored performing time-lapse imaging every 1 min at 37° C. for 2 h using a Leica inverted DMi8-Life Cell Imaging System equipped with a DMC2900 Digital Microscope Camera with CMOS sensor and live cell-imaging software (Leica Microsystems, Wetzlar, Germany). Images were imported as stacks to ImageJ software and analyzed with the manual tracking and chemotaxis/migration tools (Ibidi GmbH).

[2] = tested on: human monocytes; assay: 3D migration of monocytes elicited by CXCL12; assay type: cell-based; settings: 5-fold molar excess
From the text: as §1

[3] = tested on: primary mouse spleen B lymphocytes; assay: Transwell chemotaxis of B cells elicited by MIF; assay type: cell-based; settings: 16 nM MIF
Protocol: (§2) Chemotaxis analysis of murine B cells. A Transwell-based assay was used as described previously^34. Briefly, splenic B cells were isolated by negative depletion using a Pan B Cell Isolation Kit (Miltenyi Biotec. Bergisch Gladbach, Germany). Purity of the cells was between 95 and 99%. […] Chemotaxis was followed for 4 h at 37° C. in a humidified atmosphere of 5% CO2. Migrated cells were counted by flow cytometry using CountBright™ Absolute Counting Beads (Molecular Probes-Invitrogen).

[4] = tested on: human cardiomyocytes (HCM), pAMPK; assay: MIF-triggered AMPK signaling in cardiomyocytes (MIF/CD74); assay type: cell-based; settings: 16 nM MIF; 1- and 5-fold excess
Protocol: CD74 signaling in human cardiomyocytes. Before stimulation, medium was replaced by fresh myocyte basal medium containing 0.05% FCS and HCMs rested for 16 h. Surface CD74 expression on HCMs was verified by flow cytometry (FITC-conjugated anti-human CD74, FITC-IgG2 (isotype control) (BD Pharmingen), 1 h/4° C. in the dark, BD FACSVerse™ flow cytometer, FlowJo software). […] After treatment, cells were lysed and subjected to SDS-PAGE/Western blotting. […] Anti-rabbit horseradish peroxidase (HRP)-conjugated antibody (1:10000, GE Healthcare, Freiburg, Germany) was used for development and signals quantitated by chemiluminescence using an Odyssey® Fc imager.

[5] = tested on: primary mouse spleen B lymphocytes; assay: Transwell chemotaxis of B cells elicited by CXCL12; assay type: cell-based
Protocol: as §2

[6] = tested on: carotid arteries of Apoe−/− mice; assay: Leukocyte adhesion in atherogenic carotid arteries ex vivo under flow; set-up: species or system mouse; settings: injection three days before vessel preparation; physiological flow
Protocol: Fluos-msR4M-L1 staining and monocyte adhesion in atherosclerotic carotid arteries by multiphoton microscopy. Monocyte adhesion experiments in atherosclerotic carotid arteries under physiological flow conditions ex vivo have been established^14, 70. Seven-week-old Apoe^−/− mice were fed a Western-type HFD (0.2% cholesterol) for 12 weeks. […] On day 3, arteries were prepared and mounted into an arteriograph chamber as described^70. […] Mouse leukocytes isolated from the bone marrow of msR4M-L1- or vehicle-treated atherogenic Apoe^−/− mice were stained with fluorescent Green CMFDA or Red CMPTX (Thermo Fisher Scientific). […] The red- and green-stained cell pools were mixed at a 1:1 ratio and 3×10^6 cells in 6 mL perfused into the artery of msR4M-L1- or vehicle-treated mice, respectively. Arteries were scanned by MPM using a multispectral TCS SP8 DIVE instrument with filter-free 4TUNE NDD detection module (Leica) and the number of adherent and transmigrated leukocytes determined by scanning multi-photon excitation. Vessel structure (and plaques) were visualized by second harmonic generation (SHG).

[7] = tested on: Apoe−/− mice on HFD; assay: Cytokine array on plasma of treated mice; assay type: in vivo, mouse; settings: reductions for IFN-γ, IL-1α, IL-16, TNF-α, CXCL13/BLC
Protocol: Cytokine array. Cytokine/chemokine profiling was performed from plasma samples of msR4M-L1-versus vehicle-treated Apoe^−/− mice using mouse cytokine array panel A (R&D Systems, ARY006) according to the manufacturer's instructions. Plasma samples were diluted (1:10) in array buffer; incubated with antibody detection cocktail for 1 h at RT, exposed to the blocked membranes (overnight, 4° C.), membranes washed and incubated with streptavidin-HRP conjugate working solution (30 min, RT). Membranes were developed with Chemi-Reagent Mix and analyzed by Odyssey® Fc imager. The average signal (pixel density) of duplicate spots was quantified by ImageJ.

[8] = tested on: MonoMac-6 monocytes on human aortic endothelial cells (HAoECs); assay: Static monocyte adhesion, MIF-induced; assay type: cell-based; settings: 16 nM MIF, 320 nM peptide
Protocol: Static monocyte adhesion. HAoECs were seeded at a density of 30.000 cells/well in 6 well μ-Ibidi Perfusion slides VI 0.4 (Ibidi GmbH). […] After perfusion of the chambers with fresh medium, MonoMac6 cells (1×10^6 cells/mL) in PromoCell medium were added for 30 min. Non-adhering cells were flushed away by gentle perfusion using a 30 mL syringe. To quantify adherent monocytes, 10 individual images from each treatment were acquired using a Leica DMi8 inverted microscope with a 10× objective and cells quantified using Image J.

[9] = tested on: Apoe−/− mice on HFD; assay: In-vivo model of early atherosclerosis
Protocol: Seven-eight-week-old female Apoe^−/− mice were randomly divided into two groups of 11-12 mice each and both groups put on a Western-type HFD (0.2% cholesterol) for 4.5 weeks. Mice develop early-to-intermediate atherosclerotic lesions in this model^39. […] At the end of the experiment, mice were sacrificed, blood collected by cardiac puncture and saved for blood cell and lipid measurements and mice transcardially perfused with saline. Hearts, proximal aortas and carotid arteries were prepared and fixed for plaque morphometry and lesion analysis.
Quantification of plaques and vessel morphometry (oil red O and H&E staining). Cut heart tissue containing aortic root were embedded in optimum cutting temperature (OCT) (Sakura Finetek, Osaka, Japan) and frozen at −80° C. Eight-μm sections were prepared for oil-red O (ORO) staining and plaque immune cell analysis. The accumulation of macrophages in aortic root lesions was determined by an anti-MAC-2 antibody followed by Cy5-conjugated secondary antibody. Nuclei were visualized with DAPI. The aortic arch was cut, fixed in 4% paraformaldehyde (PFA) and embedded in paraffin. Ten-μm sections containing the three branches (brachiocephalic, left common carotid, and left subclavian artery) were prepared and stained with hematoxylin/eosin (HE) for vessel morphometry. Images were captured with a Leica DMi8 microscope and quantified using Image J.

## CC[C@H](C)[C@H](NC(=O)[C@H](Cc1ccc(O)cc1)NC(=O)[C@H](CCCNC(=N)N)NC(=O)[C@H](CC(=O)O)NC(=O)CCCCCCCCCCCNC(=O)CCCCCNC(=O)[C@H](CCCCN)NC(=O)[C@H](CS)NC(=O)[C@H](CC(C)C)NC(=O)[C@H](Cc1ccccc1)NC(=O)[C@H](CC(N)=O)NC(=O)CNC(=O)[C@H](Cc1ccccc1)NC(=O)[C@H](Cc1ccc(O)cc1)NC(=O)[C@H](Cc1c[nH]c2ccccc12)NC(=O)[C@H](CC(N)=O)NC(=O)[C@H](C)NC(=O)[C@@H](NC(=O)[C@H](C)NC(=O)[C@@H](N)CC(=O)O)C(C)C)C(=O)N[C@@H](CS)C(=O)N[C@@H](CC(=O)O)C(=O)N[C@@H](CCCNC(=N)N)C(=O)N[C@@H](Cc1ccccc1)C(=O)N[C@@H](Cc1ccc(O)cc1)C(=O)N1CCC[C@H]1C(=O)N[C@@H](CC(N)=O)C(=O)N[C@@H](CC(=O)O)C(=O)N[C@@H](CC(C)C)C(=O)N[C@@H](Cc1c[nH]c2ccccc12)C(=O)N[C@H](C(N)=O)C(C)C [msR4M-L1]
[1]
  effect on MIF-triggered 3D monocyte migration: dose-dependently attenuated
  molar excess that ablates the pro-migratory effect of MIF: 2 -fold molar excess
[2]
  effect on CXCL12-induced cell motility: remained unaffected
[3]
  inhibition of MIF-mediated B-cell chemotaxis: fully blocked
  molar excess over MIF at maximal inhibition: 5 -fold molar excess
[3]; read-out: IC50 of MIF-mediated B-lymphocyte chemotaxis
  IC50: 10 nM and 10 to 15 nM
[4]
  effect on MIF-upregulated pAMPK levels: not attenuated
[5]
  effect on CXCL12-elicited B-cell chemotaxis: unable to inhibit chemotaxis elicited by CXCL12
[6]
  number of adhering leukocytes: significantly reduced the number of adhering leukocytes
[7]
  circulating inflammatory cytokine levels: marked reduction
[8]
  effect on MIF-induced static monocyte adhesion: ablated the pro-adhesion effect of MIF
[9]; 50 μg i.p. for 4.5 weeks
  toxicity or side effects: No toxicity or side effects were noted
[9]; 50 μg per mouse i.p., HFD 4.5 weeks
  number of lesional macrophages (MAC-2 staining): significantly decreased number of lesional macrophages
[9]; 50 μg per mouse i.p., HFD 4.5 weeks, versus vehicle
  atherosclerotic lesion size in aortic arch and root: significantly decreased
